Measurements from PubChem BioAssay AID1963865 (Molecular Pharmacology Branch, DTP, NCI, 2024).

Tested on: KRAS PDC multicell spheroid viability
Assay: Anticancer human tumor 825966-067-R-J1-PDC patient-derived colon carcinoma cell line growth inhibition [KRAS2]
Details: for viability, T/C: stronger effect = lower value
In short: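 KRAS-mutant tumor cells were grown as spheroids with HUVEC endothelial cells and human MSCs as stroma. Targeted agents were tested alone and with KRAS pathway inhibitors. Doses started at or near clinical Cmax, or 10 microM, descending half-log.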

[1] = curve of first compound, second compound 0.1 µM
[2] = curve of first compound, second compound 0.316 µM
[3] = curve of first compound, second compound 1 µM
[4] = curve of first compound, second compound 3.16 µM
[5] = curve of first compound, second compound 10 µM
[6] = second compound 0.1 µM, first compound 0.0316 µM
[7] = second compound 0.1 µM, first compound 0.1 µM
[8] = second compound 0.316 µM, first compound 0.0316 µM
[9] = second compound 0.316 µM, first compound 0.1 µM
[10] = second compound 1 µM, first compound 0.0316 µM
[11] = second compound 1 µM, first compound 0.1 µM
[12] = second compound 3.16 µM, first compound 0.0316 µM
[13] = second compound 3.16 µM, first compound 0.1 µM
[14] = second compound 10 µM, first compound 0.0316 µM
[15] = second compound 10 µM, first compound 0.1 µM
[16] = compound alone, run of 08/19/2021
[17] = compound alone, run of 08/26/2021
[18] = second compound 0.1 µM, first compound 0.316 µM
[19] = second compound 0.1 µM, first compound 1 µM
[20] = second compound 0.1 µM, first compound 3.16 µM
[21] = second compound 0.1 µM, first compound 10 µM
[22] = second compound 0.316 µM, first compound 0.316 µM
[23] = second compound 0.316 µM, first compound 1 µM
[24] = second compound 0.316 µM, first compound 3.16 µM
[25] = second compound 0.316 µM, first compound 10 µM
[26] = second compound 1 µM, first compound 0.316 µM
[27] = second compound 1 µM, first compound 1 µM
[28] = second compound 1 µM, first compound 3.16 µM
[29] = second compound 1 µM, first compound 10 µM
[30] = second compound 3.16 µM, first compound 0.316 µM
[31] = second compound 3.16 µM, first compound 1 µM
[32] = second compound 3.16 µM, first compound 3.16 µM
[33] = second compound 3.16 µM, first compound 10 µM
[34] = second compound 10 µM, first compound 0.316 µM
[35] = second compound 10 µM, first compound 1 µM
[36] = second compound 10 µM, first compound 3.16 µM
[37] = second compound 10 µM, first compound 10 µM
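Note: spheroids exposed to compounds for 7 days.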
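Throughout, for viability, T/C: 100% = DMSO vehicle control viability.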

Cn1ncnc1[C@H]1c2n[nH]c(=O)c3cc(F)cc(c23)N[C@@H]1c1ccc(F)cc1 + C=CC(=O)N1CCN(c2nc(=O)n(-c3c(C)ccnc3C(C)C)c3nc(-c4c(O)cccc4F)c(F)cc23)C(C)C1
IC50 [1]: > 0.1 µM | IC50 [2]: > 0.1 µM | IC50 [3]: > 0.1 µM | IC50 [4]: > 0.1 µM | IC50 [5]: > 0.1 µM | viability, T/C (second compound 0.1 µM, first compound 0.000316 µM): 132% | viability, T/C (second compound 0.1 µM, first compound 0.001 µM): 100% | viability, T/C (second compound 0.1 µM, first compound 0.00316 µM): 98.2% | viability, T/C (second compound 0.1 µM, first compound 0.01 µM): 89.6% | viability, T/C [6]: 90.1% | viability, T/C [7]: 82.3% | viability, T/C (second compound 0.316 µM, first compound 0.000316 µM): 100% | viability, T/C (second compound 0.316 µM, first compound 0.001 µM): 99.9% | viability, T/C (second compound 0.316 µM, first compound 0.00316 µM): 143% | viability, T/C (second compound 0.316 µM, first compound 0.01 µM): 103% | viability, T/C [8]: 90.7% | viability, T/C [9]: 72.3% | viability, T/C (second compound 1 µM, first compound 0.000316 µM): 100% | viability, T/C (second compound 1 µM, first compound 0.001 µM): 91.7% | viability, T/C (second compound 1 µM, first compound 0.00316 µM): 75.2% | viability, T/C (second compound 1 µM, first compound 0.01 µM): 79.3% | viability, T/C [10]: 102% | viability, T/C [11]: 80.6% | viability, T/C (second compound 3.16 µM, first compound 0.000316 µM): 109% | viability, T/C (second compound 3.16 µM, first compound 0.001 µM): 102% | viability, T/C (second compound 3.16 µM, first compound 0.00316 µM): 101% | viability, T/C (second compound 3.16 µM, first compound 0.01 µM): 98.3% | viability, T/C [12]: 72% | viability, T/C [13]: 87.7% | viability, T/C (second compound 10 µM, first compound 0.000316 µM): 92.4% | viability, T/C (second compound 10 µM, first compound 0.001 µM): 124% | viability, T/C (second compound 10 µM, first compound 0.00316 µM): 93.2% | viability, T/C (second compound 10 µM, first compound 0.01 µM): 111% | viability, T/C [14]: 115% | viability, T/C [15]: 76.9%

C=CC(=O)N1CCN(c2nc(=O)n(-c3c(C)ccnc3C(C)C)c3nc(-c4c(O)cccc4F)c(F)cc23)C(C)C1 (stereo unspecified)
IC50 [16]: > 10 µM | IC50 [17]: > 10 µM | IC50 (compound alone, run of 09/02/2021): > 10 µM

Cn1nccc1Nc1nccc(-c2cc3c(s2)C(C)(C)N(CCN2CCOCC2)C3=O)n1 + C=CC(=O)N1CCN(c2nc(OCC3CCCN3C)nc3c2CCN(c2cccc4cccc(C)c24)C3)CC1CC#N
IC50 (curve of first compound, second compound 0.0316 µM): > 10 µM | IC50 [1]: > 10 µM | IC50 [2]: > 10 µM | IC50 [3]: > 10 µM | IC50 [4]: 0.674 µM | viability, T/C (second compound 0.0316 µM, first compound 0.0316 µM): 108% | viability, T/C (second compound 0.0316 µM, first compound 0.1 µM): 91.1% | viability, T/C (second compound 0.0316 µM, first compound 0.316 µM): 121% | viability, T/C (second compound 0.0316 µM, first compound 1 µM): 108% | viability, T/C (second compound 0.0316 µM, first compound 3.16 µM): 95.3% | viability, T/C (second compound 0.0316 µM, first compound 10 µM): 68.5% | viability, T/C [6]: 84% | viability, T/C [7]: 91.6% | viability, T/C [18]: 106% | viability, T/C [19]: 100% | viability, T/C [20]: 73.4% | viability, T/C [21]: 79.8% | viability, T/C [8]: 72.2% | viability, T/C [9]: 110% | viability, T/C [22]: 125% | viability, T/C [23]: 93.7% | viability, T/C [24]: 75.9% | viability, T/C [25]: 61.2% | viability, T/C [10]: 85.9% | viability, T/C [11]: 96.1% | viability, T/C [26]: 127% | viability, T/C [27]: 96% | viability, T/C [28]: 64.8% | viability, T/C [29]: 56.4% | viability, T/C [12]: 84.9% | viability, T/C [13]: 76.4% | viability, T/C [30]: 104% | viability, T/C [31]: 4.64% | viability, T/C [32]: 27.8% | viability, T/C [33]: 57.8%

CC1(C)CCC(CN2CCN(c3ccc(C(=O)NS(=O)(=O)c4ccc(NCC5CCOCC5)c([N+](=O)[O-])c4)c(Oc4cnc5[nH]ccc5c4)c3)CC2)=C(c2ccc(Cl)cc2)C1 + COc1cc2nc(C)nc(NC(C)c3cc(N)cc(C(F)(F)F)c3)c2cc1OC1CCOC1
IC50 [1]: 2.08 µM | IC50 [2]: 1.94 µM | IC50 [3]: 1.99 µM | IC50 [4]: 2.21 µM | IC50 [5]: 0.0316 µM | viability, T/C [6]: 94.7% | viability, T/C [7]: 86.3% | viability, T/C [18]: 107% | viability, T/C [19]: 111% | viability, T/C [20]: 21.4% | viability, T/C [21]: 5.44% | viability, T/C [8]: 99.2% | viability, T/C [9]: 94.8% | viability, T/C [22]: 90.6% | viability, T/C [23]: 91.5% | viability, T/C [24]: 19.7% | viability, T/C [25]: 6.45% | viability, T/C [10]: 118% | viability, T/C [11]: 96% | viability, T/C [26]: 114% | viability, T/C [27]: 106% | viability, T/C [28]: 12.3% | viability, T/C [29]: 3.36% | viability, T/C [12]: 139% | viability, T/C [13]: 119% | viability, T/C [30]: 130% | viability, T/C [31]: 180% | viability, T/C [32]: 8.21% | viability, T/C [33]: 3.86% | viability, T/C [14]: 14.3% | viability, T/C [15]: 48.2% | viability, T/C [34]: 68.2% | viability, T/C [35]: 59.6% | viability, T/C [36]: 1.84% | viability, T/C [37]: 0.72%

CNCc1ccccc1-c1csc(C(C)Nc2nc(C)nc3cc(OC)c(OC)cc23)c1 (stereo unspecified)
viability, T/C (compound 10 µM): 0.22% [middle of 14 runs] | IC50 [16]: 2.3 µM [middle of 6 runs] | IC50 [17]: 3.18 µM [middle of 5 runs]

CC(C)NCC(C(=O)N1CCN(c2ncnc3c2C(C)CC3O)CC1)c1ccc(Cl)cc1 (stereo unspecified) + CNCc1ccccc1-c1csc(C(C)Nc2nc(C)nc3cc(OC)c(OC)cc23)c1
IC50 [1]: 1.88 µM | IC50 [2]: 1.78 µM | IC50 [3]: 0.787 µM | IC50 [4]: 0.0322 µM | IC50 [5]: < 0.0316 µM | viability, T/C [6]: 84.8% | viability, T/C [7]: 84.4% | viability, T/C [18]: 89.6% | viability, T/C [19]: 85.3% | viability, T/C [20]: 20.8% | viability, T/C [21]: 7.87% | viability, T/C [8]: 79% | viability, T/C [9]: 110% | viability, T/C [22]: 119% | viability, T/C [23]: 69.9% | viability, T/C [24]: 29.2% | viability, T/C [25]: 6.85% | viability, T/C [10]: 81.6% | viability, T/C [11]: 84.8% | viability, T/C [26]: 97.9% | viability, T/C [27]: 40% | viability, T/C [28]: 14.8% | viability, T/C [29]: 3.31% | viability, T/C [12]: 50.6% | viability, T/C [13]: 21.1% | viability, T/C [30]: 1.24% | viability, T/C [31]: 0.74% | viability, T/C [32]: 0.68% | viability, T/C [33]: 1.98% | viability, T/C [14]: 1.91% | viability, T/C [15]: 1.5% | viability, T/C [34]: 0.93% | viability, T/C [35]: 0.3% | viability, T/C [36]: 0.36% | viability, T/C [37]: 0.91%
